From the NIST ThermoML archive (doi:10.1016/j.jct.2018.01.003)
± gives the expanded uncertainty stated by the source.

Key:
[1] = activity coefficient (dimensionless); of the first substance listed, at infinite dilution; xn = mol fraction of the nth substance listed; settings: 101.33 kPa, Liquid, Chromatography, x1 = 0
[2] = 101.33 kPa, Liquid, Vibrating tube method

SMILES: CCCCC [pentane] + CCCCCCCCCCCCCC[P+](CCCCCC)(CCCCCC)CCCCCC.N#CC(=C=[N-])C#N
- activity coefficient ([1]; 328.15 K): 1.59 ± 0.11
- activity coefficient ([1]; 338.15 K): 1.62 ± 0.11
- activity coefficient ([1]; 348.15 K): 1.64 ± 0.11
- activity coefficient ([1]; 358.15 K): 1.67 ± 0.11
- activity coefficient ([1]; 368.15 K): 1.69 ± 0.11

SMILES: CCCO [propan-1-ol] + CCCCCCCCCCCCCC[P+](CCCCCC)(CCCCCC)CCCCCC.N#CC(=C=[N-])C#N
- activity coefficient ([1]; 328.15 K): 0.426 ± 0.035
- activity coefficient ([1]; 338.15 K): 0.437 ± 0.035
- activity coefficient ([1]; 348.15 K): 0.447 ± 0.036
- activity coefficient ([1]; 358.15 K): 0.457 ± 0.036
- activity coefficient ([1]; 368.15 K): 0.465 ± 0.036

SMILES: CC(C)O [propan-2-ol] + CCCCCCCCCCCCCC[P+](CCCCCC)(CCCCCC)CCCCCC.N#CC(=C=[N-])C#N
- activity coefficient ([1]; 328.15 K): 0.503 ± 0.038
- activity coefficient ([1]; 338.15 K): 0.507 ± 0.038
- activity coefficient ([1]; 348.15 K): 0.51 ± 0.038
- activity coefficient ([1]; 358.15 K): 0.514 ± 0.038
- activity coefficient ([1]; 368.15 K): 0.516 ± 0.038

SMILES: c1ccncc1 [pyridine] + CCCCCCCCCCCCCC[P+](CCCCCC)(CCCCCC)CCCCCC.N#CC(=C=[N-])C#N
- activity coefficient ([1]; 338.15 K): 0.401 ± 0.034
- activity coefficient ([1]; 348.15 K): 0.413 ± 0.034
- activity coefficient ([1]; 358.15 K): 0.425 ± 0.035
- activity coefficient ([1]; 368.15 K): 0.438 ± 0.035

SMILES: C=Cc1ccccc1 [styrene] + CCCCCCCCCCCCCC[P+](CCCCCC)(CCCCCC)CCCCCC.N#CC(=C=[N-])C#N
- activity coefficient ([1]; 328.15 K): 0.496 ± 0.038
- activity coefficient ([1]; 338.15 K): 0.52 ± 0.039
- activity coefficient ([1]; 348.15 K): 0.544 ± 0.04
- activity coefficient ([1]; 358.15 K): 0.57 ± 0.041
- activity coefficient ([1]; 368.15 K): 0.593 ± 0.042

SMILES: C1CCOC1 [tetrahydrofuran] + CCCCCCCCCCCCCC[P+](CCCCCC)(CCCCCC)CCCCCC.N#CC(=C=[N-])C#N
- activity coefficient ([1]; 328.15 K): 0.381 ± 0.033
- activity coefficient ([1]; 338.15 K): 0.4 ± 0.034
- activity coefficient ([1]; 348.15 K): 0.417 ± 0.035
- activity coefficient ([1]; 358.15 K): 0.436 ± 0.035
- activity coefficient ([1]; 368.15 K): 0.453 ± 0.036

SMILES: c1ccsc1 [thiophene] + CCCCCCCCCCCCCC[P+](CCCCCC)(CCCCCC)CCCCCC.N#CC(=C=[N-])C#N
- activity coefficient ([1]; 328.15 K): 0.41 ± 0.034
- activity coefficient ([1]; 338.15 K): 0.429 ± 0.035
- activity coefficient ([1]; 348.15 K): 0.445 ± 0.036
- activity coefficient ([1]; 358.15 K): 0.461 ± 0.036
- activity coefficient ([1]; 368.15 K): 0.478 ± 0.037

SMILES: Cc1ccccc1 [toluene] + CCCCCCCCCCCCCC[P+](CCCCCC)(CCCCCC)CCCCCC.N#CC(=C=[N-])C#N
- activity coefficient ([1]; 328.15 K): 0.558 ± 0.04
- activity coefficient ([1]; 338.15 K): 0.585 ± 0.041
- activity coefficient ([1]; 348.15 K): 0.611 ± 0.043
- activity coefficient ([1]; 358.15 K): 0.635 ± 0.044
- activity coefficient ([1]; 368.15 K): 0.656 ± 0.045

SMILES: CCCCCCCCCCCCCC[P+](CCCCCC)(CCCCCC)CCCCCC.N#CC(=C=[N-])C#N [trihexyltetradecylphosphonium tricyanomethanide]
- mass density ([2]; 298.15 K): 900.77 ± 3.7 kg/m3
- mass density ([2]; 308.15 K): 894.91 ± 3.7 kg/m3
- mass density ([2]; 318.15 K): 889.05 ± 3.7 kg/m3
- mass density ([2]; 328.15 K): 883.23 ± 3.7 kg/m3
- mass density ([2]; 338.15 K): 877.43 ± 3.7 kg/m3
- mass density ([2]; 348.15 K): 871.66 ± 3.7 kg/m3
- mass density ([2]; 358.15 K): 865.92 ± 3.6 kg/m3
- mass density ([2]; 368.15 K): 860.2 ± 3.6 kg/m3

SMILES: O [water] + CCCCCCCCCCCCCC[P+](CCCCCC)(CCCCCC)CCCCCC.N#CC(=C=[N-])C#N
- activity coefficient ([1]; 328.15 K): 1.92 ± 0.13
- activity coefficient ([1]; 338.15 K): 1.77 ± 0.12
- activity coefficient ([1]; 348.15 K): 1.65 ± 0.11
- activity coefficient ([1]; 358.15 K): 1.54 ± 0.1
- activity coefficient ([1]; 368.15 K): 1.44 ± 0.09
